Drawing on PubChem BioAssay (NCI), this text covers TGI for 14 compounds.

Some test systems named below: CCRF-CEM leukemia; COLO 205 colon; DU-145 prostate; HCT-116 colon; HCT-15 colon; HOP-62 NSCLC; M14 melanoma; MDA-MB-435; SF-268 CNS; SR leukemia.
Common to all, as to test: growth of human tumour cells (NCI), 48 h

Where “and” joins values, the source holds several entries; their conditions need not be identical. Equal entries are not always repeated.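 Assay format: 96-well plates, 48-hour exposure. TGI marks complete inhibition of growth.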 Where only a bound is given, the exact number is not on record here.

For the compound `Cc1[nH]c(-c2ccccc2)c(-c2ccc(Cl)cc2)c1C(=O)ONC(=O)c1ccccc1`, the TGI was greater than 21.8 µM in the assay with CCRF-CEM leukemia; 22.9 µM in the assay on COLO 205 colon; 3.76 µM in the assay on DU-145 prostate; 5.24 µM with HCT-116 colon; 21.6 µM in the assay with HCT-15 colon; 5.45 µM with HOP-62 NSCLC. In addition, the TGI in the assay with M14 melanoma worked out at 19.9 µM; with MDA-MB-435, 11.9 µM; in the assay with SF-268 CNS, 6.9 µM.

For `O=C1[C@@H]2Cc3c([nH]c4ccccc34)C(C3CCCCC3)N2C(=O)[C@@H]2CCCN12` (some centres not stated), the TGI was 42.9 µM with COLO 205 colon; greater than 100 µM in the assay on DU-145 prostate; 74.5 µM with HCT-116 colon; greater than 100 µM with HCT-15 colon; greater than 100 µM in the assay with HOP-62 NSCLC; greater than 100 µM with M14 melanoma. The TGI in the assay on MDA-MB-435 is greater than 100 µM; in the assay with SF-268 CNS it was greater than 100 µM; in the assay on SR leukemia, 46.8 µM.

Turning to `COC(=O)C(C)Sc1nc2cc(Cl)ccc2s1` (configuration not stated), the TGI in the assay on CCRF-CEM leukemia, with COLO 205 colon, in the assay with DU-145 prostate, in the assay with HCT-116 colon, with HCT-15 colon and in the assay on HOP-62 NSCLC was greater than 100 µM throughout. The TGI in the assay on M14 melanoma, in the assay with MDA-MB-435 and with SF-268 CNS was greater than 100 µM each time.

In the case of `CCOC(=O)c1cn(-c2ccc(Cl)cc2)c(=O)n2c1nc1ccccc12`, the TGI in the assay with CCRF-CEM leukemia, in the assay with COLO 205 colon, in the assay with DU-145 prostate, with HCT-116 colon, in the assay on HCT-15 colon and in the assay with HOP-62 NSCLC was greater than 100 µM in each case. The TGI with M14 melanoma, with MDA-MB-435 and in the assay on SR leukemia was greater than 100 µM in each case.

Take `O=C(O)c1ccc(Nc2nc3cc(C(F)(F)F)ccc3nc2C(=O)O)cc1`: the TGI in the assay on COLO 205 colon, in the assay with DU-145 prostate, with HCT-116 colon, in the assay with HCT-15 colon, in the assay with HOP-62 NSCLC and in the assay with MDA-MB-435 was greater than 100 µM in each case. In addition, the TGI in the assay on SF-268 CNS and in the assay with SR leukemia was greater than 100 µM each time.

For the compound `O=C(NCCO)c1ccc(Cl)cc1`, the TGI with CCRF-CEM leukemia is 90.2 µM; in the assay with DU-145 prostate it was greater than 100 µM; with HCT-116 colon it was greater than 100 µM; in the assay on HCT-15 colon, greater than 100 µM; in the assay with HOP-62 NSCLC it was greater than 100 µM; in the assay with M14 melanoma, greater than 100 µM. The TGI in the assay on MDA-MB-435, with SF-268 CNS and with SR leukemia was greater than 100 µM in each case.

`CSC1SCC2C(=O)N(C)C3(CC3C)C(=O)OCC(NC(=O)c3nc4ccccc4cc3O)C(=O)NC(C)C(=O)N(C)C1C(=O)N(C)C1(CC1C)C(=O)OCC(NC(=O)c1nc3ccccc3cc1O)C(=O)NC(C)C(=O)N2C` (configuration not stated): the TGI is less than 0.0001 µM in the assay with CCRF-CEM leukemia; less than 0.0001 µM in the assay on COLO 205 colon; greater than 100 µM in the assay on DU-145 prostate; 16.4 µM with HCT-116 colon; less than 0.0001 µM in the assay on M14 melanoma; less than 0.0001 µM with MDA-MB-435. Also, the TGI in the assay on SF-268 CNS was 0.00684 µM and 0.0159 µM; with SR leukemia, less than 0.0001 µM.

As for `CSc1nncc(-c2cc3c(c(SC)n2)CCC3)n1`, the TGI in the assay on CCRF-CEM leukemia, in the assay on COLO 205 colon, in the assay on DU-145 prostate, in the assay on HCT-116 colon, in the assay on HCT-15 colon and with HOP-62 NSCLC was greater than 100 µM throughout. For the same compound, the TGI in the assay with M14 melanoma, in the assay on MDA-MB-435 and in the assay on SF-268 CNS was greater than 100 µM each time.

For `O=C(N=Nc1ccccc1Br)NNc1ccccc1Br`, the TGI with CCRF-CEM leukemia, with DU-145 prostate, with HCT-116 colon, in the assay on HCT-15 colon, in the assay on HOP-62 NSCLC and in the assay with M14 melanoma was greater than 100 µM in each case. Also, the TGI with MDA-MB-435, in the assay on SF-268 CNS and in the assay with SR leukemia was greater than 100 µM in each case.

Take `CCOC(=O)c1sc2c(c1OC(=O)c1ccccc1)c(=O)n(-c1ccccc1)c(=S)n2-c1ccccc1`: the TGI in the assay on CCRF-CEM leukemia was greater than 100 µM; with COLO 205 colon it was greater than 100 µM; in the assay with DU-145 prostate, greater than 100 µM; in the assay on HCT-116 colon, 74.8 µM; in the assay with HCT-15 colon, greater than 100 µM; with HOP-62 NSCLC, 54.4 µM. Moreover, the TGI in the assay on M14 melanoma was 45.2 µM; with MDA-MB-435, 51.7 µM; in the assay on SF-268 CNS it was greater than 100 µM.

As for `N#Cc1c2c(c(N3CCOCC3)n3c1nc1ccccc13)CCCC2`, the TGI was 8.48 µM with CCRF-CEM leukemia; 37.5 µM with COLO 205 colon; 37.2 µM with DU-145 prostate; 31.7 µM with HCT-116 colon; 36.2 µM with HCT-15 colon; 44.4 µM in the assay with M14 melanoma. The TGI in the assay on MDA-MB-435 is 39.7 µM; in the assay with SF-268 CNS, greater than 100 µM.

Consider `OCCN=C1Nc2ccc(Cl)cc2C(=S)N2CSC[C@@H]12`, for which the TGI in the assay on COLO 205 colon, in the assay with DU-145 prostate, in the assay with HCT-116 colon, with HCT-15 colon, with HOP-62 NSCLC and in the assay on M14 melanoma was greater than 100 µM in each case. The TGI with MDA-MB-435, in the assay with SF-268 CNS and in the assay on SR leukemia was greater than 100 µM in each case.

For `NC(N)=N/N=C/c1nc2sccn2c1[N+](=O)[O-]`, the TGI was 29.7 µM in the assay with COLO 205 colon; 57.1 µM with DU-145 prostate; 59.6 µM in the assay with HCT-116 colon; greater than 100 µM with HCT-15 colon; greater than 100 µM in the assay on HOP-62 NSCLC; 52.7 µM with M14 melanoma. The TGI in the assay with MDA-MB-435 was 39.9 µM; in the assay on SF-268 CNS it was greater than 100 µM; in the assay on SR leukemia, greater than 100 µM.

With `C/C=C/[C@H]1O[C@@](OC)([C@@H](C)[C@H](O)[C@H](C)[C@H]2OC(=O)/C(OC)=C/C(C)=C/[C@@H](C)[C@@H](O)[C@@H](C)[C@@H](O)[C@H](C)C/C(C)=C/C=C/[C@@H]2OC)CC(OC2CC(O)C(OC(N)=O)C(C)O2)[C@@H]1C` (some centres not stated), the TGI with COLO 205 colon is 1.8 µM; in the assay on DU-145 prostate it was 18.8 µM; with HCT-116 colon, 0.197 µM; with HCT-15 colon, 5.26 µM; in the assay on HOP-62 NSCLC it was 1.4 µM; in the assay with M14 melanoma, less than 0.0124 µM. In addition, the TGI in the assay on MDA-MB-435 was less than 0.01 µM; in the assay with SF-268 CNS, 22.3 µM.
